Read-outs that look alike come from different tables or passages of the source.
Columns and labels:
[1] = Pharmacokinetic study on ICR mice (plasma, LC-MS/MS); format: in vivo; details: male, mouse; for bioavailability: 5 mg/kg oral intake vs 1 mg/kg injection, read-out: Bioavailability F(%); for AUC(0-inf): read-out: Area under curve AUC0-∞; for Cmax: read-out: Blood concentration Cmax; for half-life: read-out: Half-life T1/2(h) (converted); for clearance: read-out: Clearance rate
Protocol: ICR mice, male, 29.0 g to 33.8g, purchased from Beijing Charles River Laboratory Animal Technology Co., Ltd.
Intravenous injection group: an appropriate amount of drug was weighed, and added with mixed solvent (DMA: 30% Solutol HS-15: Saline = 10: 10: 80 (v/v/v)) to prepare the drug with a final concentration of 0.2 mg/mL.
Oral gavage administration group: an appropriate amount of drug was weighed, added with an appropriate amount of sodium carboxymethyl cellulose (CMC-Na, containing 0.5% Tween 80), vortex shaked, and ultrasonically prepared into […] suspension.
For ICR mice, each compound to be tested was divided into an intravenous injection group (9 mice in each group) and an intragastric group (9 mice in each group). The ICR mice were fasted overnight and then administered by orbital intravenous injection (administration dose of 1 mg/kg, and administration volume of 5 mL/kg) and administered by intragastric injection (administration dose of 5 mg/kg, and administration volume of 10 mL/kg), and ate 4 hours after administration.
About 0.2 mL of blood was collected via jugular vein before administration and 0.083 hour, 0.25 hour, 0.5 hour, 1 hour, 2 hours, 4 hours, 8 hours, 12 hours and 24 hours after administration, and heparin sodium was used for anticoagulation. The collected blood samples were placed on ice, and plasma was separated by centrifugation (centrifugation condition: 1500 g, 10 minutes). The collected plasma was stored at-40°C to -20°C before analysis.
LC-MS/MS was used to determine the contents of different compounds to be tested in mouse plasma after intravenous injection and intragastric administration.
The pharmacokinetic parameters of the compounds of the present invention and the positive control can be seen in Table 8. Table 8 Results of pharmacokinetic parameters

TRKA = target: T1, TRKA (Homo sapiens, UniProt P04629); assay: HTRF KinEASE-TK kinase activity inhibition assay, TRKA; format: biochemical; details: ATP 100 µM
T1 construct: purchased Carna bioscience 08-186
Excerpt: (§1) The following method was used to determine the inhibition degrees of the compounds of the present invention on the activity of recombinant human NTRK family kinase in vitro. In this method, HTRF®KinEASE-TK tyrosine kinase kit (article number: 62TK0PEB) of Cisbio company was used, and the principle of the kit was based on time-resolved fluorescence resonance energy transfer (TF-FRET), and the inhibition of the compounds on the activity of the NTRK kinase was reflected by determining a phosphorylation degree of a biotinylated polypeptide substrate mediated by NTRK kinase. For detailed experimental operation, please refer to the kit instruction. Recombinant human wild-type NTRK proteins were purchased from Carna bioscience (the article numbers were TRKA #08-186, TRKB #08-187 and TRKC #08-197 respectively), and recombinant human mutant NTRK proteins were purchased from SignalChem (the article numbers were TRKA G595R #N16-12BG-10, TRKA G667C # N16-12CG-10, and TRKC G623R # N18-12CH-10 respectively).
(§2) The experimental methods were operated according to the steps in the kit instruction, and were briefly described as follows: a test compound was first dissolved in DMSO to prepare a storage solution, and then diluted in gradient with a buffer provided in the kit. A final concentration of the test compound in the reaction system ranged from 1,000 nM to 0.004 nM. An ATP Km value concentration of each NTRK protein was determined by using an ATP solution diluted in gradient (Sangon Biotech (Shanghai) Co., Ltd., A600311). According to the Km value obtained, the ATP concentrations in the reaction system were set as 100 µM for TRKA, 10 µM for TRKB, 50 µM for TRKC, 7 µM for TRKA(G595R), 1 µM for TRKA(G667C) and 100 µM for TRKC(G623R). The reaction was carried out in a 384-well microplate. Firstly, the compound and a certain amount of corresponding NTRK protein were added to the wells and incubated for 5 minutes to 10 minutes at room temperature. Then, the ATP solution and the biotinylated polypeptide substrate solution were added to the reaction solution and incubated with shaking at room temperature for 60 minutes. Then, an anti-phosphorylated tyrosine antibody coupled with a europium compound and streptavidin coupled with modified allophycocyanin XL665 were added to the reaction, and continuously incubated with shaking at room temperature for 1 hour. After incubation, fluorescence intensity values of each well at an excitation wavelength of 304 nm, and emission wavelengths of 620 nm and 665 nM were determined in a TF-FRET mode on a microplate reader. Compared with the fluorescence intensity ratio of a control group (0.1% DMSO), the percentage inhibition rates of the compound at each concentration were calculated, and the IC50 value of the compound was obtained by performing nonlinear regression analysis for logarithmic value of the compound concentration - inhibition rate by GraphPad Prism 5 software, which can be seen in Table 1. Table 1 IC50 data of the compounds of the present invention on TRK enzyme activity inhibition

TRKB = target: T2, TRKB (Homo sapiens, UniProt Q16620); assay: HTRF KinEASE-TK kinase activity inhibition assay, TRKB; format: biochemical; details: ATP 10 µM
T2 construct: purchased Carna bioscience 08-187
Excerpt: as §1, §2

[2] = intravenous, 1 mg/kg, injection

T1 sequence (P04629 33-796): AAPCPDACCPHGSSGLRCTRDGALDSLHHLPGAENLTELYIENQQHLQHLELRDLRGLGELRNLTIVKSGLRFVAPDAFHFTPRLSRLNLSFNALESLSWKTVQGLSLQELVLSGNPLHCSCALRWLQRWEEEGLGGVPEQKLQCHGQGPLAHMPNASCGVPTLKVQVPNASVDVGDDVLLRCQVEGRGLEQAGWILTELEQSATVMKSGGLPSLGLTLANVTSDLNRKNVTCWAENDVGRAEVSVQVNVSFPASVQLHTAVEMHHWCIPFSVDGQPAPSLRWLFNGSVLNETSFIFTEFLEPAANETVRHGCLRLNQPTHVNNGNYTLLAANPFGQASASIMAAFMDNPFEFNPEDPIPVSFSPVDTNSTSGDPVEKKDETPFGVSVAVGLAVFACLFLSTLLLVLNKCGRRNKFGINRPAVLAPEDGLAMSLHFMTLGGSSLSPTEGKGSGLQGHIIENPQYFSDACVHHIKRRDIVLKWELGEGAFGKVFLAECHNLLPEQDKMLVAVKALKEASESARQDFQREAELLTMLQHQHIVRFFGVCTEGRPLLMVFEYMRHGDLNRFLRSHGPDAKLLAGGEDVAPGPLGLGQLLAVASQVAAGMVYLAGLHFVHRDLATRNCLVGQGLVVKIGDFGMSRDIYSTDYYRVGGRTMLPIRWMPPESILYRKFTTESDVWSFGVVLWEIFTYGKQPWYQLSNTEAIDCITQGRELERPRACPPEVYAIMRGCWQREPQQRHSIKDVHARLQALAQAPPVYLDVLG
T2 sequence (Q16620 32-822): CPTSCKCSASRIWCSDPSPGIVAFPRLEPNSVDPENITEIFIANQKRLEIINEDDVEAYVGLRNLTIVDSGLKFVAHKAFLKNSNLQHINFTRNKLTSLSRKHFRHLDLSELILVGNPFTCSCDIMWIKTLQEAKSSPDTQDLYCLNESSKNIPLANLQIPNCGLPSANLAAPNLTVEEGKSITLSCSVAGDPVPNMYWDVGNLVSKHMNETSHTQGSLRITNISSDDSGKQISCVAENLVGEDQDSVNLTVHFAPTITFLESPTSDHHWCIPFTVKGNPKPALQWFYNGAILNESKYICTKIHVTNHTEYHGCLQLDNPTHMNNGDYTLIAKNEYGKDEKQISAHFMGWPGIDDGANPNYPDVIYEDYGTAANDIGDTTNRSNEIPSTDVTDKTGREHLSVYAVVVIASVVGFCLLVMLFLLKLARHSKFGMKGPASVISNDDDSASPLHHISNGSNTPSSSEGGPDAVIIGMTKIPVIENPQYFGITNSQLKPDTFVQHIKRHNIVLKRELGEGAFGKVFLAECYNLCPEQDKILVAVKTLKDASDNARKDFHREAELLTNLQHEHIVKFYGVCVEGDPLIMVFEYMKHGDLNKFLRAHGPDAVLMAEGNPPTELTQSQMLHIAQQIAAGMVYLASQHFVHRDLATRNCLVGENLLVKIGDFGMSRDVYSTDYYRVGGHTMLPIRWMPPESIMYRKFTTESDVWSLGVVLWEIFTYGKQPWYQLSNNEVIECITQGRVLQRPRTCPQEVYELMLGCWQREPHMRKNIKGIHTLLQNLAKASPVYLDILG

| SMILES | bioavailability [1] [%] | AUC(0-inf) ([1]; 5 mg/kg, oral intake) [ng·h/mL] | Cmax ([1]; 5 mg/kg, oral intake) [ng/mL] | half-life ([1]; 5 mg/kg, oral intake) [h] | AUC(0-inf) [1, 2] [ng·h/mL] | clearance [1, 2] [mL/min/kg] | half-life [1, 2] [h] | IC50 (TRKA) [nM] | IC50 (TRKB) [nM] |
| --- | --- | --- | --- | --- | --- | --- | --- | --- | --- |
| C[C@H]1Nc2ccn3ncc(c3n2)C(=O)NC[C@@]2(C)Cc3cc(F)cc1c3O2 [Example 8, (3R,11R)-6-fluoro-3,11-dimethyl-10-oxa-2,13,17,1 8,21-pentaazapentacyclo[13.5.2.1^8,11.0^4,9.0^18,22]tric osa-1(21),4,6,8,15(22),16,19-heptaen-14-one] | 53 | 5620 | 2260 | 1.54 | 2100 | 7.9 | 1.47 | 0.56 | 0.45 |
| C[C@H]1Nc2ccn3nc(N)c(c3n2)C(=O)NC[C@@]2(C)Cc3cc(F)cc1c3O2 [Example 25, (3R,11R)-16-amino-6-fluoro-3,11-dimethyl-10-oxa-2,13,17,18,21-pentaazapentacyclo[13.5.2.1^8,11.0^4,9. 0^18,22]tricosa-1(21),4,6,8,15(22),16,19-heptaen-14-one] | 47 | 4850 | 1050 | 3.15 | 2060 | 8.11 | 1.54 | 0.82 | 1.17 |

Reference: patent EP3974434B1, “MACROLIDE DERIVATIVES, PREPARATION METHOD AND APPLICATION THEREOF” (Zhejiang Hisun Pharmaceutical Co., Ltd., priority 2019, dated 2020)
